One test relates to C. albicans yeast cells. Description: hyphal induction assay (germ tube formation, yeast-hypha switch). The format is cell-based, Candida albicans. As to conditions: for EC50: read-out: I50 (hyphal induction); for hypha-inducing activity: result in words.
For test [1], the system named is GST-LRR fusion protein (LRR domain of CaCdc35p). The test can be described thus: circular dichroism (CD) spectroscopy of recombinant LRR domain. Type of test: binding, Candida albicans. The source says: Next, the possibility that MLA 71Q may directly bind to the LRR domain of CaCdc35p was explored. The wild-type LRR domain and that of Irr9mu were expressed in E. coli as glutathione-S-transferase (GST) fusions and purified to high homogeneity. Then circular dichroism (CD) spectroscopy was used to detect possible direct interaction between the LRR domain and MLADIQ. CD is a reliable tool in detecting conformational changes in a protein as a result of ligand binding (Woody, R. W. (1995). Methods Enzymol. 246, 34-71).

The target in test [2] is GST-LRR fusion (LRR domain of CaCdc35p) (Candida albicans, UniProt A0A1D8PR83). Description: tryptophan fluorescence quenching of recombinant LRR domain. As to conditions: for Kd: nonlinear regression of fluorescence quenching, read-out: equilibrium dissociation constant (Kd); for fluorescence quenching: result in words. Type of test: binding. The source says: Since specific binding of a molecule to a tryptophan-containing protein may cause concentration-dependent quenching; of tryptophan fluorescence, fluorescence spectroscopy was used to measure the intensity of tryptophan fluorescence of the recombinant LRR domains in the presence of different concentrations of MLADiQ. […] The fluorescence spectrum of GST was not affected by any of the compounds used.
GST-LRR fusion (LRR domain of CaCdc35p), sequence (A0A1D8PR83 entry or part of it): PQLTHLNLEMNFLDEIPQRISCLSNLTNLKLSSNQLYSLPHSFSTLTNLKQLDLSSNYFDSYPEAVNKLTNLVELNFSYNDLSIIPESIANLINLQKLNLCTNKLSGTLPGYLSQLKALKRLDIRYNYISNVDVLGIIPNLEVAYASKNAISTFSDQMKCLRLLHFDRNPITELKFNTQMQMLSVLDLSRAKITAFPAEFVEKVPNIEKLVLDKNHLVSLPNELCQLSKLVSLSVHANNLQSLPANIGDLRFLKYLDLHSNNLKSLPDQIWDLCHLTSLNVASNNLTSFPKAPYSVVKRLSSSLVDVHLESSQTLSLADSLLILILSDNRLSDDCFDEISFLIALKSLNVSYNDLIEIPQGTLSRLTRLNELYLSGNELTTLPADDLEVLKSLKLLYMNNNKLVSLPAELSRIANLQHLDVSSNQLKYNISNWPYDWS

Where [3] appears, read: synthetic compounds and reference inducer.

Read-outs that look alike come from different tables or passages of the source. Bounds are passed on as bounds.

The Kd is the free concentration of one partner at which half of the binding sites on the other are occupied at equilibrium, for simple one-to-one binding.

Take `CC(=O)NC1C(O)OC(CO)C(O)C1OC(C)C(=O)NC(C)C(=O)O` [NMLA, N-acetylmurmyl-L-alanine]: the EC50 in the test on C. albicans yeast cells (setting [3]) was ~8000 µM.

Consider `OCC(O)CO` [glycerol, reference compound], for which the hypha-inducing activity entry with C. albicans yeast cells is “none of these compounds was found to have appreciable hypha-inducing activity”.

As for `CC(=O)N[C@H]1C(O)O[C@H](CO)[C@@H](O)[C@@H]1O` (stereo partly drawn) [NAG, N-Acetylglucosamine, reference compound], the EC50 in the test on C. albicans yeast cells (setting [3]) was ~3000 µM. Besides, the “shift of the ellipticity values of the CD spectra” value (from here on “shift”) in test [1] is recorded as “weaker but consistent spectrum shift”. In addition, in test [2], the Kd is 6.8 ± 0.32 µM and the fluorescence quenching entry was “lower levels of fluorescence quenching”.

Regarding `CC(=O)NC1C(O)OC(CO)C(O)C1OC(C)C(=O)NC(C)C(=O)NC(CCC(=O)O)C(N)=O` [NMLADiQ, N-acetylmuramyl-L-alanyl-D isoglutamine], in the test on C. albicans yeast cells, the “concentration above which the activity started to drop significantly” value was “above 20 mM”. Further, in the test with C. albicans yeast cells (at increased concentrations), the “highest germ tube formation induced” value is ≤ 60%. For the same compound, the “times less active than MLADiQ” value in the test on C. albicans yeast cells (from I50) is recorded as 600 times. Besides, the EC50 with C. albicans yeast cells (setting [3]) is ~6000 µM. In test [1], the “shift” value is listed as “weaker but consistent spectrum shift”. Besides, in test [2], the dissociation constant (Kd) amounted to 5.26 ± 0.47 µM and the fluorescence quenching result is recorded as “lower levels of fluorescence quenching”.

On to `O=C(CO)[C@@H](O)[C@H](O)[C@H](O)CO` [fructose, reference compound], for which the hypha-inducing activity entry in the test on C. albicans yeast cells is “none of these compounds was found to have appreciable hypha-inducing activity”.

Take `CC(=O)N[C@H]1C(O)O[C@H](CO)[C@@H](O)[C@@H]1O[C@H](C)C(=O)O` (stereo partly drawn) [N-acetylmuramic acid, reference compound]: in the test with C. albicans yeast cells, the hypha-inducing activity result is reported as “Neither muramic nor N-acetylmuramic acid was active”.

Turning to `C[C@@H](O[C@H]1[C@H](O)[C@@H](CO)OC(O)[C@@H]1N)C(=O)O` (stereo partly drawn) [muramic, muramic acid, reference compound], the hypha-inducing activity result with C. albicans yeast cells is listed as “Neither muramic nor N-acetylmuramic acid was active”.

With `CC(O)C(=O)O` (stereo not drawn) [lactic acid, reference compound], the hypha-inducing activity result in the test with C. albicans yeast cells is on record as “none of these compounds was found to have appreciable hypha-inducing activity”.

As for `C[C@H](NC(=O)[C@@H](C)O[C@H]1[C@H](O)[C@@H](CO)OC(O)[C@@H]1N)C(=O)O` (stereo partly drawn), in the test on C. albicans yeast cells (synthetic compounds), the EC50 was ~200 µM. Further, the “shift” value in test [1] is on record as “weaker but consistent spectrum shift”. Moreover, in test [2], the Kd is 1.67 ± 0.13 µM and the fluorescence quenching result is given as “lower levels of fluorescence quenching”.

These data come from patent US9107905B2 (Agency for Science, Technology and Research, priority 2006, dated 2015).
